Results taken from PubChem BioAssay AID248 (DTP/NCI, 2004).
“And” between values parts separate entries of the source, which are not always exact repeats. Identical values can stand only once. Toxic doses and inconclusive results are not listed. No stated cut-off is given here; in the data, active means T/C of 150% or more; inactive means T/C below 125%.

Test system: L1210 leukemia ip in BDF1 mice, survival T/C
Test: NCI In Vivo Anticancer Drug Screen. Data for tumor model L1210 Leukemia (intraperitoneal) in B6D2F1 (BDF1) mice
Settings: endpoint: mean survival time, higher = longer survival
Procedure, shortened: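 Ratio derived from survival: compound-dosed mice over vehicle-dosed mice, all bearing a transplantable tumor.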

[1] = dose: 100.0 mg/kg/injection, schedule: Q01DX001 (ip), vehicle: saline
[2] = dose: 200.0 mg/kg/injection, schedule: Q01DX001 (ip), vehicle: saline
[3] = dose: 400.0 mg/kg/injection, schedule: Q01DX001 (ip), vehicle: saline
[4] = dose: 100.0 mg/kg/injection, schedule: Q01DX009 (ip), vehicle: Klucel (hydroxypropylcellulose) (HPC)
[5] = dose: 100.0 mg/kg/injection, schedule: Q04DX003 (ip), vehicle: Klucel (hydroxypropylcellulose) (HPC)
[6] = dose: 200.0 mg/kg/injection, schedule: Q01DX009 (ip), vehicle: Klucel (hydroxypropylcellulose) (HPC)
[7] = dose: 200.0 mg/kg/injection, schedule: Q04DX003 (ip), vehicle: Klucel (hydroxypropylcellulose) (HPC)
[8] = dose: 400.0 mg/kg/injection, schedule: Q01DX009 (ip), vehicle: Klucel (hydroxypropylcellulose) (HPC)
[9] = dose: 400.0 mg/kg/injection, schedule: Q04DX003 (ip), vehicle: Klucel (hydroxypropylcellulose) (HPC)
[10] = dose: 100.0 mg/kg/injection, schedule: Q01DX001 (ip), vehicle: carboxymethylcellulose (CMC)
[11] = dose: 200.0 mg/kg/injection, schedule: Q01DX001 (ip), vehicle: carboxymethylcellulose (CMC)
[12] = dose: 400.0 mg/kg/injection, schedule: Q01DX001 (ip), vehicle: carboxymethylcellulose (CMC)
[13] = dose: 100.0 mg/kg/injection, schedule: Q04DX002 (ip), vehicle: Klucel (hydroxypropylcellulose) (HPC)
[14] = dose: 200.0 mg/kg/injection, schedule: Q04DX002 (ip), vehicle: Klucel (hydroxypropylcellulose) (HPC)
[15] = dose: 400.0 mg/kg/injection, schedule: Q04DX002 (ip), vehicle: Klucel (hydroxypropylcellulose) (HPC)
[16] = dose: 100.0 mg/kg/injection, schedule: Q01DX001 (ip), vehicle: Klucel (hydroxypropylcellulose) (HPC)
[17] = dose: 200.0 mg/kg/injection, schedule: Q01DX001 (ip), vehicle: Klucel (hydroxypropylcellulose) (HPC)
[18] = dose: 400.0 mg/kg/injection, schedule: Q01DX001 (ip), vehicle: Klucel (hydroxypropylcellulose) (HPC)
[19] = dose: 50.0 mg/kg/injection, schedule: Q01DX001 (sc), vehicle: steriod suspending solution
[20] = dose: 100.0 mg/kg/injection, schedule: Q01DX001 (sc), vehicle: steriod suspending solution
[21] = dose: 200.0 mg/kg/injection, schedule: Q01DX001 (sc), vehicle: steriod suspending solution
[22] = dose: 400.0 mg/kg/injection, schedule: Q01DX001 (sc), vehicle: steriod suspending solution

Measured: T/C

O=C1Nc2ccccc2CS1
inactive: [1] 100 % of control | [2] 97 % of control | [3] 94 % of control

O=c1oc2ccccc2cc1P(=O)(O)O
inactive: dose: 50.0 mg/kg/injection, schedule: Q01DX001 (ip), vehicle: saline 91 % of control | [1] 95 % of control | [2] 95 % of control | [3] 97 % of control

CS(=O)(=O)OCC1CCCCO1 (centres undefined)
inactive: [4] 91 % of control | [5] 101 % of control | [6] 102 % of control | [7] 102 % of control | [8] 106 % of control | [9] 111 % of control

NC(=O)NC(C(=O)O)(c1ccccc1)C1CCC1 (centres undefined)
inactive: dose: 50.0 mg/kg/injection, schedule: Q01DX009 (ip), vehicle: saline with Tween-80 103 % of control | dose: 100.0 mg/kg/injection, schedule: Q01DX009 (ip), vehicle: saline with Tween-80 94 % of control | dose: 200.0 mg/kg/injection, schedule: Q01DX009 (ip), vehicle: saline with Tween-80 102 % of control | dose: 400.0 mg/kg/injection, schedule: Q01DX009 (ip), vehicle: saline with Tween-80 107 % of control

COc1cc2c(cc1OC)C1=[N+](CCC1)CC2
inactive: dose: 75.0 mg/kg/injection, schedule: Q01DX001 (ip), vehicle: saline 101 % of control | [10] 97 % of control | dose: 150.0 mg/kg/injection, schedule: Q01DX001 (ip), vehicle: saline 102 % of control | [11] 94 % of control | [12] 100 % of control

CCn1cc(C(=O)O)c(=O)c2c3ccccc3ccc21
inactive: [13] 96 % of control | [14] 93 % of control | [15] 100 % of control

CC(C)(C)NC(=O)Nc1cccc(O)c1
inactive: [4] 95 % of control | [6] 100 % of control | [8] 104 % of control

CC(=O)Nc1cc2c(cc1Cl)-c1ccc(F)cc1C2=O
inactive: [5] 97 % of control | [7] 103 % of control | [9] 105 % of control

O=C(Oc1cccc(OC(=O)c2ccc(Cl)cc2)c1)c1ccc(Cl)cc1
inactive: [16] 100 % of control | [4] 112 % of control | [17] 100 % of control | [6] 110 % of control | [18] 93 % of control | [8] 108 % of control

CCOC(=O)C(=O)Nc1cc(C)ccc1C
inactive: dose: 100.0 mg/kg/injection, schedule: Q04DX003 (ip), vehicle: saline with Tween-80 93 % of control | dose: 200.0 mg/kg/injection, schedule: Q04DX003 (ip), vehicle: saline with Tween-80 95 % of control

CC(N)C(=O)NC(CC(N)=O)C(=O)O (centres undefined)
inactive: dose: 25.0 mg/kg/injection, schedule: Q04DX002 (ip), vehicle: saline 95 % of control | dose: 50.0 mg/kg/injection, schedule: Q01DX001 (ip), vehicle: carboxymethylcellulose (CMC) 97 % of control | dose: 50.0 mg/kg/injection, schedule: Q04DX002 (ip), vehicle: saline 100 % of control | [10] 97 % of control | dose: 100.0 mg/kg/injection, schedule: Q04DX002 (ip), vehicle: saline 106 % of control | [11] 97 % of control | [12] 95 % of control

CC(=O)OC1CCC2C3C(C)C4(O)C=CCCC(C)(O4)C3CCC12C (centres undefined)
inactive: [19] 100 % of control | [20] 89 % of control | [21] 96 % of control | [22] 105 % of control

CC(C)OC(=O)C1(N)CCCC1
inactive: dose: 25.0 mg/kg/injection, schedule: Q01DX Z (ip), vehicle: carboxymethylcellulose (CMC) 105 % of control | dose: 30.0 mg/kg/injection, schedule: Q01DX Z (ip), vehicle: saline 113 % of control | dose: 40.0 mg/kg/injection, schedule: Q01DX Z (ip), vehicle: other 119 % of control | dose: 45.0 mg/kg/injection, schedule: Q01DX Z (ip), vehicle: saline 118 % of control | dose: 50.0 mg/kg/injection, schedule: Q01DX Z (ip), vehicle: carboxymethylcellulose (CMC) 122 % of control | dose: 150.0 mg/kg/injection, schedule: Q01DX Z (ip), vehicle: saline 89 % of control | dose: 200.0 mg/kg/injection, schedule: Q01DX Z (ip), vehicle: carboxymethylcellulose (CMC) 88 % of control

Cc1c(O)c2ccccc2[nH]c1=O
inactive: dose: 100.0 mg/kg/injection, schedule: Q04DX002 (ip), vehicle: saline with Tween-80 97 % of control | dose: 200.0 mg/kg/injection, schedule: Q04DX002 (ip), vehicle: saline with Tween-80 103 % of control | dose: 400.0 mg/kg/injection, schedule: Q04DX002 (ip), vehicle: saline with Tween-80 106 % of control

c1ccc2cc3c(cc2c1)Cn1c-3nc2ccccc21
inactive: [1] 108 % of control | dose: 100.0 mg/kg/injection, schedule: Q01DX009 (ip), vehicle: saline 97 % of control | dose: 100.0 mg/kg/injection, schedule: Q01DX015 (ip), vehicle: saline 95 % of control | dose: 100.0 mg/kg/injection, schedule: Q04DX003 (ip), vehicle: saline 98 % of control | [2] 100 % of control | dose: 200.0 mg/kg/injection, schedule: Q01DX009 (ip), vehicle: saline 95 % of control | dose: 200.0 mg/kg/injection, schedule: Q01DX015 (ip), vehicle: saline 97 % of control | dose: 200.0 mg/kg/injection, schedule: Q04DX003 (ip), vehicle: saline 93 % of control | [3] 100 % of control | dose: 400.0 mg/kg/injection, schedule: Q01DX009 (ip), vehicle: saline 112 % of control | dose: 400.0 mg/kg/injection, schedule: Q04DX003 (ip), vehicle: saline 96 % of control

c1ccc2c(c1)cc[n+]1c3ccccc3ccc21
inactive: dose: 1.25 mg/kg/injection, schedule: Q01DX001 (ip), vehicle: saline 97 % of control | dose: 2.5 mg/kg/injection, schedule: Q01DX001 (ip), vehicle: saline 97 % of control | dose: 5.0 mg/kg/injection, schedule: Q01DX001 (ip), vehicle: saline 103 % of control | dose: 10.0 mg/kg/injection, schedule: Q01DX001 (ip), vehicle: saline 107 % of control

O=CC(O)C(O)C(O)CO (centres undefined) (tested in a mixture with another compound)
inactive: [16] 94 % of control | [17] 88 % of control | [18] 88 % of control

S=C(SSSSC(=S)N1CCCCC1)N1CCCCC1
inactive: dose: 50.0 mg/kg/injection, schedule: Q04DX003 (ip), vehicle: Klucel (hydroxypropylcellulose) (HPC) 97 % of control | [5] 101 % of control | [7] 92 % of control | [9] 92 % of control

CCCCCOC(=O)Nc1ccc(OCC)cc1
inactive: [13] 105 % of control | [14] 101 % of control | [15] 105 % of control

CC12CCC(=O)C=C1CCC1C2C(O)CC2(C)C1CCC2(O)C(=O)CSc1ncnc2nc[nH]c12 (centres undefined)
inactive: [19] 96 % of control | [20] 94 % of control and 108 % of control | [21] 105 % of control and 108 % of control | [22] 97 % of control and 102 % of control
